{
  "source": "patent US20240342121A1",
  "about": "“THE USE OF BETA-HYDROXYBUTYRATES FOR THE TREATMENT OR PREVENTION OF ANEURYSMS AND DISSECTIONS” (priority 2021, published 2024)",
  "key": {"[1]": {"tested_on": "angiotensin II (AII)-induced AAA", "assay": "AII-induced AAA mouse model, post-treatment", "assay_type": "in vivo", "text": "To determine if senescence is a major cause of aneurysm development, the association between senescence and aneurysms using the angiotensin II (AII)-induced AAA model was investigated. Mice were infused AII for four weeks using osmotic mini-pump implantation into Apoe^−/− transgenic mouse.\nTo investigate the therapeutic potential of ketotherapy for abdominal aortic aneurysm (AAA), Ketogenic-diet (KD) and Ketone-ester (KE) were provided to angiotensin II (AII)-induced mouse model of AAA (FIG. 6). […] After completing AII infusion, the mice were post-treated with KD and KE for two to four weeks.\nTo investigate the time-dependent reduction of aorta diameter, the inner diameter of the aorta using ultrasound analysis was measured."}, "CaCl2-induced AAA": {"tested_on": "CaCl2-induced AAA", "assay": "CaCl2-induced AAA animal model, post-treatment", "assay_type": "in vivo, mouse", "description": "FIGS. 5A-5J. (a) Representative image of aorta which developed CaCl2)-induced AAA, and post-treated with KD, KE, βHB, s-βHB, or ABT-737. KD is provided to mice for 4 weeks, KE is administrated with drinking water, βHB, s-βHB or ABT-737 are IP injected for 2 weeks with 48h intervals. (b) Incidence of AAA by CaCl2) treatment and proportion of mice recovered from the AAA after post-treatment of KD, KE, βHB and s-βHB for 2 weeks. (c) Time-dependent observation of inner diameter after CaCl2) treatment and post-treatment of KD or KE (28˜56 days after surgery). (d) Comparison of ultrasound images of CaCl2)-induced AAA to the identical aorta post-treated with βHB for 2 weeks. (e) H&E staining of aorta from the mice developed with CaCl2)-induced AAA, and post-treated with KD, KE, βHB, and s-βHB. (f) SA β-Gal activity assay on aorta which developed CaCl2)-induced AAA, and post-treated with KD, KE, βHB, s-βHB, or ABT-737. (g) Quantitation of senescent area on aorta developed with CaCl2)-induced AAA, and post-treated with KD, KE, βHB, s-βHB. (h) Verhoeff Van Gieson/EVG staining of abdominal aorta developed with CaCl2)-induced AAA, post-treated with KD, KE, βHB and s-βHB. (i) Average number of elastic fibers on abdominal aorta presented at FIG. 5H. (j) Measurement of Pulse Wave Velocity (PWV) on CaCl2)-infused mice with post-treatment of KD, KE, βHB, and s-βHB.\nTo confirm the possibility that the therapeutic effect of βHB on AAA is not only applied to AII-induced AAA, the CaCl2)-induced AAA animal model was also examined as well (FIG. 5A).\nTo further validate the therapeutic efficacy of s-βHB on aneurysms, we used a CaCl2-induced AAA animal model as well as an angiotensin II infusion model. […] Two-way ANOVA, s-βHB vs βHB, #P<0.01, n=10. Since the elimination of senescent SMCs is critical for the recovery of AAA, we investigated that s-βHB is also effective to remove senescent cells in CaCl2)-induced aneurysms. […] Student's T-test for s-βHB vs βHB, ^#P<0.05, n=8."}, "[2]": {"settings": "in vivo", "text": "We established an in vivo tolerance test of βHB and s-βHB (FIGS. 9A and 9B). […] The reduction of the inner diameter of the aortic wall is also dramatic in the treatment of s-βHB in FIG. 9F (Two-way ANOVA, ^###P<0.005, n=10)."}},
  "note": "“Also recorded” adds a separate entry of the source.",
  "data": [
    {"smiles": "C[C@@H](O)CC(=O)O", "note": "[βHB, (R)-3-Hydroxybutyrate]", "values": [
      {"measurement": "TUNEL assay, apoptosis of senescent plaque in the aneurysm", "setting": "[1]; FIG. 2H", "value": "induced targeted apoptosis of senescent plaque"},
      {"measurement": "abdominal aorta stiffness, Pulse Wave Velocity (PWV)", "setting": "[1]; FIG. 3H, FIG. 18A", "value": "ameliorated vascular stiffness; also recorded: reversed aneurysm-associated aortic stiffness"},
      {"measurement": "KβHB modified protein in abdominal aorta", "setting": "[1]; in vivo, immunofluorescent staining, FIG. 15B", "value": "increases KβHB modified protein in nuclear"},
      {"measurement": "AAA rate after post-treating", "setting": "[1]; incidence of AAA by angiotensin II infusion 67%, n=10, FIG. 9D", "value": 47, "unit": "%"},
      {"measurement": "AAA on whole aorta images", "setting": "[1]; injected every other day for two weeks, FIG. 2D", "value": "successfully rescued"},
      {"measurement": "myofibroblast, SM α-Actin and FSP co-staining in aortic wall", "setting": "[1]; post-treatment, FIGS. 17A-17B", "value": "increases"},
      {"measurement": "abnormal curvature on aortic wall (ultrasound)", "setting": "CaCl2-induced AAA; FIG. 5D", "value": "repaired abnormal curvature on aortic wall"},
      {"measurement": "recovery from CaCl2-induced AAA", "setting": "CaCl2-induced AAA; FIGS. 5A and 5B", "value": "Effective recovery"},
      {"measurement": "senescent cells, SA β-gal assay", "setting": "CaCl2-induced AAA; FIGS. 5F and 5G", "value": "significantly reduced; also recorded: less effective than KD, KE and s-βHB"},
      {"measurement": "elastic laminar / vascular integrity", "setting": "CaCl2-induced AAA; FIGS. 5H and 5I", "value": "improved vascular integrity"},
      {"measurement": "recovery rate of AAA", "setting": "CaCl2-induced AAA; comparison between treatments, FIG. 5B", "value": "less effectiveness compared to s-βHB, KD, and KE treatment"},
      {"measurement": "AAA progression", "setting": "CaCl2-induced AAA; post-treatment after four weeks, FIG. 5C", "value": "inhibited AAA progression"},
      {"measurement": "half-life", "setting": "[2]", "value": 50, "unit": "min"},
      {"measurement": "metabolic elimination rate", "setting": "[2]", "value": "faster than s-βHB"}
    ]}
  ]
}
